These results are taken from patent publication US7084158B2, “Substituted propargylamines” (Bayer Cropscience S.A., priority 2001, dated 2006).

Structures are written as SMILES.

Holding throughout (format): in vivo
Common to all, as to parameters: key: compounds were considered to be active when, at a concentration of 500 ppm or less, they had an activity on the harmful organisms of 50% or more

One assay concerns Aedes aegypti. The assay can be described thus: Example AG: microtiter plate, yellow fever mosquito larvicidal activity. Particulars: 500 ppm or less, after 3 days.
The next assay concerns Nilaparvata lugens. As to the kind of experiment: Example A: rice leaf dip, leafhopper larvae mortality. The settings on record: 500 ppm or less; L3 larvae on dipped rice plants; after 6 days. As to the method: The leaves of 12 rice plants having a stem length of 8 cm were dipped for 5 seconds into an aqueous solution of the formulated compound to be examined. After the solution had run off, the rice plants treated in this manner were placed into a Petri dish and populated with about 20 larvae (L3 stage) of the rice leafhopper species Nilaparvata lugens. The Petri dish was closed and then stored in a climatized chamber (16 hours of light/day, 25° C., 40–60% relative atmospheric humidity). After 6 days of storage, the mortality among the leafhopper larvae was determined. The compounds of the following examples were active: Nos. 29, 32, 42, 43, 51, 70, 84, 1002, 1004, 1005, 1040, 180, 184, 193, 197, 203, 209, 1059, 264, 265, 1066.

The test system of another assay is Meloidogyne incognita. The assay can be described thus: Example H: root gall nematode larvae immobilization (contact activity). The settings on record: 500 ppm or less; 2nd stage larvae; 6 days permanent exposure. As to the method: In a glass vessel, an aqueous solution of the formulated compound to be examined was added to about 3000 freshly hatched active (mobile) larvae (2nd development stage) of the root gall nematode (Meloidogyne incognita) (final volume 20 ml). After 6 days of permanent exposure of the nematode larvae, the percentage of the individual larvae immobilized by the activity of the compound was determined in comparison to the untreated controls (contact activity). The compounds of the following examples were active: 39, 52, 159, 161, 162, 163, 164, 165, 1045, 1046, 1047, 179, 183, 187, 1048, 298, 206, 208, 227, 230, 1061, 237, 238, 245, 250, 255, 256, 260, 268, 269, 274, 275, 288, 290.

For another assay, the system named is Spodoptera littoralis. The assay can be described thus: Example G: treated L2 larvae and insect diet, Egyptian cotton leafworm mortality. Particulars: 500 ppm or less, after 6 days. On the procedure:
A Petri dish whose bottom was covered with filter paper and which contained about 5 ml of insect diet is prepared. Five L2 larvae of the Egyptian cotton leafworm (Spodoptera littoralis) were counted into a small beaker. 200 μl of an aqueous solution of the formulated preparation to be examined were pipetted into the beaker. The treated larvae were then poured into the Petri dish, and a further 200 μl of the aqueous solution were distributed over the insect diet. The Petri dish was closed and then stored at about 25° C. in a climatized chamber. After 6 days of storage, the effect of the compound on the larvae was determined (mortality). The compounds of the following examples were active: 29, 70, 60, 159, 1005, 1040, 1042, 1044, 1045, 1046, 1047.

Another assay deals with Heliothis virescens. The assay can be described thus: Example B: tobacco budworm eggs on filter paper/insect diet, mortality. The settings on record: 500 ppm or less; 24-hour-old eggs dipped, diet treated; after 6 days.
Assay [1] has as its system Diabrotica undecimpunctata. The assay can be described thus: Example C: corn rootworm eggs with maize corn, mortality. The settings on record: 500 ppm or less; 4-5-day-old eggs; after 6 days.
The subject of the next assay is Carpocapsa pomonella. The assay can be described thus: Example D: dipped apples, codling moth L1 larvae mortality. The settings on record: 500 ppm or less, after 14 days. As to the method:
Apples were dipped into an aqueous solution of the formulated compound to be examined. The apples were then populated with 10 L1 larvae of the codling moth (Carpocapsa pomonella). After 14 days of storage at about 25° C., the effect of the compound on the larvae was determined (mortality). The compounds of the following examples were active: Nos. 14, 15, 17, 18, 70, 1007, 1008, 1009, 1036, 1038, 197.

With `CCc1ccc(C#CCN2CCC(C)CC2)cc1C(F)(F)F` [Example 264], the larvicidal activity entry in the assay with Aedes aegypti is on record as “active”. For the same compound, the “mortality among the leafhopper larvae” value in the assay on Nilaparvata lugens is “active”.

Regarding `CC1(C)CCCC(C)(C)N1CC#Cc1ccccc1` [Example 84], the “mortality among the leafhopper larvae” value in the assay with Nilaparvata lugens is recorded as “active”.

For the compound `CC1CCN(CC#Cc2nc(C(F)(F)F)ccc2C(F)(F)F)CC1` [Example 165], the “percentage of larvae immobilized (contact activity)” value (shortened to “percentage of larvae immobilized”) in the assay with Meloidogyne incognita is recorded as “active”.

`CC1CCN(CC#Cc2ccc(C(F)(F)F)cc2)CC1.Cl` [Example 1042]: the “effect on the larvae (mortality)” value with Spodoptera littoralis is given as “active”. Besides, the “effect on the eggs and hatched larvae (mortality)” value (in the assay on Heliothis virescens; in assay [1]) was “active” in each case.

Regarding `Cc1nc(C#CCN2CCC(C)CC2)cc(C(F)(F)F)n1` [Example 161], in the assay on Meloidogyne incognita, the “percentage of larvae immobilized” value was “active”.

For `CC1CCN(CC#Cc2ccc(C(F)(F)F)cc2)CC1` [Example 29], the “effect on the larvae (mortality)” value in the assay on Spodoptera littoralis was “active”. In addition, in the assay on Heliothis virescens, the “effect on the eggs and hatched larvae (mortality)” value is given as “active”. Also, the “mortality among the leafhopper larvae” value with Nilaparvata lugens is recorded as “active”.

Regarding `CC1CCN(CC#Cc2cccc(-c3nccs3)c2)CC1` [Example 227], the “percentage of larvae immobilized” value in the assay with Meloidogyne incognita was “active”.

Turning to `CC1CCN(CC#Cc2ccc(C(F)(F)F)c(Cl)n2)CC1.Cl` [Example 1048], the “effect on the eggs and hatched larvae (mortality)” value in the assay with Heliothis virescens is given as “active”. Besides, the “percentage of larvae immobilized” value in the assay on Meloidogyne incognita is “active”.

For the compound `CSc1nc(C#CCN2CC(C)CC(C)C2)cc(C(F)(F)F)n1` (stereo not shown) [Example 159], the “effect on the larvae (mortality)” value with Spodoptera littoralis is “active”. Also, the “percentage of larvae immobilized” value in the assay with Meloidogyne incognita is “active”.

Regarding `COc1c(Cl)cc(C#CCN2CCC(C)CC2)cc1Cl` [Example 17], the “effect on the larvae (mortality)” value in the assay on Carpocapsa pomonella was “active”. For the same compound, the “effect on the eggs and hatched larvae (mortality)” value (in the assay on Heliothis virescens; in assay [1]) was “active” each time.

Consider `CC1CCN(CC#Cc2ccc(C=O)s2)CC1` [Example 298], for which the “effect on the eggs and hatched larvae (mortality)” value in assay [1] is “active”. In addition, in the assay on Meloidogyne incognita, the “percentage of larvae immobilized” value is listed as “active”.

With `Cc1ccc([N+](=O)[O-])cc1-c1ccc(C#CCN2CCC(C)CC2)cc1` [Example 179], the “effect on the eggs and hatched larvae (mortality)” value in the assay with Heliothis virescens is “active”. The “percentage of larvae immobilized” value in the assay on Meloidogyne incognita is reported as “active”.

Regarding `CC1CCN(CC#Cc2ccc(-c3cccnc3Cl)cc2)CC1` [Example 187], the “percentage of larvae immobilized” value in the assay on Meloidogyne incognita is on record as “active”.

For the compound `CN1CCN(CC#Cc2ccc(C(F)(F)F)cc2)CC1` [Example 52], in the assay with Meloidogyne incognita, the “percentage of larvae immobilized” value is reported as “active”.

Take `CC1CCN(CC#Cc2cc(C(F)(F)F)cc(C(F)(F)F)n2)CC1.CCCCCCCCC(=O)O` [Example 1045]: the “effect on the larvae (mortality)” value with Spodoptera littoralis is “active”. Besides, the “effect on the eggs and hatched larvae (mortality)” value with Heliothis virescens was “active”. Also, in the assay with Meloidogyne incognita, the “percentage of larvae immobilized” value is “active”.

With `CN1CCN(CC#Cc2cc(C(F)(F)F)cc(C(F)(F)F)c2)CC1` [Example 51], in the assay on Nilaparvata lugens, the “mortality among the leafhopper larvae” value is given as “active”.

Consider `CCS(=O)(=O)O.Cc1cc(C(F)(F)F)cc(C#CCN2CCC(C)CC2)n1` [Example 1064], for which, in the assay on Aedes aegypti, the larvicidal activity entry was “active”. Besides, the “effect on the eggs and hatched larvae (mortality)” value in assay [1] is “active”.

With `CC1CCCCN1CC#Cc1cc(C(F)(F)F)cc(C(F)(F)F)c1` (stereo not shown) [Example 39], the “percentage of larvae immobilized” value in the assay with Meloidogyne incognita is “active”.

As to `CC1CCN(CC#Cc2ccc(Br)c(C(F)(F)F)c2)CC1.O=C(O)/C=C\C(=O)O` [Example 1066], the larvicidal activity entry in the assay on Aedes aegypti is reported as “active”. Also, the “effect on the eggs and hatched larvae (mortality)” value in assay [1] is on record as “active”. In the assay on Nilaparvata lugens, the “mortality among the leafhopper larvae” value is “active”.

As for `CC1CCN(CC#Cc2ccc([N+](=O)[O-])s2)CC1` [Example 208], the “percentage of larvae immobilized” value in the assay with Meloidogyne incognita is reported as “active”.

In the case of `Cc1ccccc1-c1ccc(C#CCN2CCC(C)CC2)cc1` [Example 183], the “effect on the eggs and hatched larvae (mortality)” value in the assay on Heliothis virescens was “active”. Also, the “percentage of larvae immobilized” value in the assay with Meloidogyne incognita is recorded as “active”.

Consider `CC1CCN(CC#Cc2ccc(Cl)c(Cl)c2Cl)CC1` [Example 15], for which, in the assay with Carpocapsa pomonella, the “effect on the larvae (mortality)” value is “active”. In addition, the “effect on the eggs and hatched larvae (mortality)” value in the assay on Heliothis virescens is “active”.

On to `Cc1cc(C#CCN2CCC(C)CC2)sc1-c1ccsc1` [Example 238], for which the “percentage of larvae immobilized” value in the assay on Meloidogyne incognita was “active”.

As to `CSc1nc(C#CCN2CCCCCC2)cc(C(F)(F)F)n1` [Example 164], the “percentage of larvae immobilized” value in the assay on Meloidogyne incognita is “active”.

On to `CC1CCN(CC#Cc2ccc(-c3ccc(Cl)cc3Cl)s2)CC1` [Example 274], for which, in the assay on Meloidogyne incognita, the “percentage of larvae immobilized” value is given as “active”.

For `CC1CCN(CC#Cc2ccc(-c3ccc(F)cc3)s2)CC1` [Example 230], the “effect on the eggs and hatched larvae (mortality)” value in the assay with Heliothis virescens was “active”. The “percentage of larvae immobilized” value with Meloidogyne incognita was “active”.

In the case of `CC1CCN(CC#Cc2cc(C(F)(F)F)cc(C(F)(F)F)c2)CC1C` (stereo not shown) [Example 267], the larvicidal activity entry with Aedes aegypti is given as “active”. In addition, the “effect on the eggs and hatched larvae (mortality)” value in assay [1] is recorded as “active”.

In the case of `Cc1cc(C#CCN2CCC(C)CC2)sc1-c1ccc(-c2ccccc2)cc1` [Example 237], in the assay with Meloidogyne incognita, the “percentage of larvae immobilized” value is reported as “active”.

Turning to `CC1CCN(CC#Cc2ccc(-c3cccc(Cl)c3Cl)cc2)CC1` [Example 180], the “effect on the eggs and hatched larvae (mortality)” value with Heliothis virescens was “active”. The “mortality among the leafhopper larvae” value in the assay on Nilaparvata lugens is reported as “active”.

Regarding `CC1CCN(CC#Cc2ccc(Cl)c(C(F)(F)F)c2)CC1` [Example 14], in the assay on Carpocapsa pomonella, the “effect on the larvae (mortality)” value is recorded as “active”. The “effect on the eggs and hatched larvae (mortality)” value in the assay on Heliothis virescens is recorded as “active”.

As to `CCC1CCCN(CC#Cc2cc(C(F)(F)F)cc(C(F)(F)F)c2)C1` (stereo not shown) [Example 32], the “effect on the eggs and hatched larvae (mortality)” value (in the assay with Heliothis virescens; in assay [1]) was “active” each time. Moreover, the “mortality among the leafhopper larvae” value with Nilaparvata lugens is recorded as “active”.

For `CC1CCN(CC#Cc2cc(C(F)(F)F)cc(C(F)(F)F)n2)CC1.O=C(O)C(F)(F)F` [Example 1046], the “effect on the larvae (mortality)” value in the assay with Spodoptera littoralis is given as “active”. Moreover, the “effect on the eggs and hatched larvae (mortality)” value in the assay with Heliothis virescens was “active”. Also, the “percentage of larvae immobilized” value with Meloidogyne incognita is recorded as “active”.

As to `FC(F)(F)c1cc(C#CCN2CCCC3CCCCC32)cc(C(F)(F)F)c1` (stereo not shown) [Example 42], the “mortality among the leafhopper larvae” value in the assay with Nilaparvata lugens was “active”.

With `CC1CCN(CC#Cc2cc(C(F)(F)F)ccn2)CC1` [Example 203], the “effect on the eggs and hatched larvae (mortality)” value (with Heliothis virescens; in assay [1]) was “active” in each case. Further, the “mortality among the leafhopper larvae” value in the assay with Nilaparvata lugens was “active”.

For the compound `C[C@@H]1C[C@H](C)CN(CC#Cc2cc(C(F)(F)F)cc(C(F)(F)F)c2)C1.Cl` [Example 1044], the “effect on the larvae (mortality)” value with Spodoptera littoralis is reported as “active”. Further, in the assay on Heliothis virescens, the “effect on the eggs and hatched larvae (mortality)” value was “active”.
